The conditions of data set [1]: 298.15 K; 101.33 kPa; Liquid.
Data set [2] can be described thus: refractive index (Na D-line) (dimensionless). To be noted: 298.15 K; 101.33 kPa; Liquid; Standard Abbe refractometry.

Numbers after ± are expanded uncertainties.

Take `CO` [methanol]: the mass density in data set [1] is 786.63 ± 0.61 kg/m3. In addition, the refractive index in data set [2] was 1.3264 ± 0.0007.
